# Experimental data as given in PubChem BioAssay (NCI).
# Where “and” joins values, the source holds several entries; their conditions need not be identical. Equal entries are not always repeated.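 48-hour exposure; five concentrations; linearly interpolated endpoints. GI50 = concentration required for 50% inhibition of growth. TGI: total growth inhibition.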
# Key:
# Assay in all cases: NCI tumour cell line growth inhibition, 48 h
# [1] = test system: DLD-1 colon
# [2] = test system: DMS 114 small cell lung
# [3] = test system: XF 498 CNS
# [4] = test system: RXF-631 renal
# [5] = test system: BT-549 breast
# [6] = test system: MCF7 breast
# [7] = test system: MDA-MB-231 breast
# [8] = test system: MDA-N
# [9] = test system: T-47D breast
SMILES,TGI [1],TGI [2],TGI [3],TGI [4],other results
O=C1c2ccccc2C(=O)C1(Cl)C1(S(=O)(=O)O)c2ccccc2-c2ccccc21,> 100 µM,> 100 µM,> 100 µM,–,–
O=S(O)CCCCSSCC(O)C(O)CSSCCCCS(=O)O (stereo unspecified),> 100 µM,34 µM and 56.6 µM,35.9 µM and 26 µM,> 100 µM,–
O=S(=O)([O-])c1ccc2c(c1)-c1nc-2nc2[n-]c(nc3nc(nc4[n-]c(n1)c1ccc(S(=O)(=O)[O-])cc41)-c1cc(S(=O)(=O)[O-])ccc1-3)c1ccc(S(=O)(=O)[O-])cc21.[Cu+2].[Na+],> 100 µM,> 100 µM,> 100 µM,> 100 µM,GI50 [5]: 47.4 µM; TGI [5]: > 100 µM; GI50 [1]: 7.65 µM; GI50 [2]: 31.2 µM; GI50 [6]: > 100 µM; TGI [6]: > 100 µM; GI50 [7]: > 100 µM; TGI [7]: > 100 µM; GI50 [8]: > 100 µM; TGI [8]: > 100 µM; GI50 [4]: > 86.8 µM; GI50 [9]: 75.6 µM; TGI [9]: > 100 µM; GI50 [3]: 68.3 µM
Cc1ccc(SC(C)/C=C/NNC2=NC(c3ccccc3)C(c3ccccc3)=NN2)cc1 (stereo unspecified),> 100 µM,> 100 µM,–,–,–
CCOP(=O)(Cc1ccc(CP(=O)(OCC)OCC)n1C)OCC,> 100 µM,> 100 µM,–,> 100 µM,–
CC(O)C(N=Cc1ccccc1[O-])C(=O)[O-].CC(O)C(N=Cc1ccccc1[O-])C(=O)[O-].[Co+2] (stereo unspecified),> 100 µM,–,> 100 µM,> 100 µM,GI50 [1]: 83.7 µM; GI50 [4]: > 100 µM; GI50 [3]: > 100 µM
CC(=O)O.CC(=O)O.CC(=O)O.CC(=O)O.CC(=O)O.CC(=O)O.O.[Ti].[Ti],> 100 µM,–,–,–,GI50 [1]: > 100 µM
COC(=O)C1=C(C)N(NC(=O)c2ccccc2)C(C)(O)C12CCOC2=O (stereo unspecified),> 100 µM,> 100 µM,> 100 µM,–,–
CS(=O)(=O)N/N=C/CN1C(=O)c2ccccc2C1=O,> 100 µM,> 100 µM,> 100 µM,–,–
COc1cc(Nc2cn[nH]c2-c2ccc(Cl)cc2)cc(OC)c1OC,–,–,–,–,GI50 [5]: 3.37 µM; TGI [5]: 19.2 µM; GI50 [6]: 3.3 µM; TGI [6]: 53.2 µM; GI50 [7]: 6.79 µM; TGI [7]: > 90.3 µM; GI50 [9]: 4.56 µM; TGI [9]: 56 µM
O=[N+]([O-])c1nccn1CC(O)c1ccc(F)cc1 (stereo unspecified),–,> 100 µM,> 100 µM,> 100 µM,–
COc1ccc(NC(=O)CCc2cc(-c3ccc(O)c(OC)c3)nc(NC#N)n2)cc1,> 100 µM,> 100 µM,–,–,–
CCCCCCCCCC/C=C/CC(=O)SCCNC(=O)CCNC(=O)[C@@H](O)C(C)(C)COP(=O)(O)OP(=O)(O)OCC1OC(n2cnc3c(N)ncnc32)C(O)C1OP(=O)(O)O (stereo partly specified),–,–,–,–,TGI [6]: > 10 µM; TGI [7]: > 10 µM; TGI [8]: > 10 µM; TGI [9]: > 10 µM
O=C(O)CNc1cc(-c2ccccc2)nc(NCC(=O)O)n1,> 100 µM,> 100 µM,> 100 µM,> 100 µM,–
O=[n+]1c2c(n([O-])c3ccccc31)CCCCCCCCCC2,> 100 µM,–,> 100 µM,–,–
Cc1ccc(S(=O)(=O)NCC2CCCCC2=O)cc1 (stereo unspecified),–,> 100 µM,> 100 µM,–,–
C=C(CCCCC)CN1CCCC1[C@@](C)(O)CC(=O)OCC (stereo partly specified),> 100 µM,> 100 µM,> 100 µM,–,–
CC/C(=C(/c1ccc(OCCN(C)C)cc1)c1ccc(OC(=O)CCCCC(=O)c2c(C)[nH]c(/C=C3\N=C(c4ccc[nH]4)C=C3OC)c2C)cc1)c1ccccc1,–,–,–,–,GI50 [5]: 3.57 µM; TGI [5]: 17 µM; GI50 [6]: 0.0544 µM; TGI [6]: 1.2 µM; GI50 [7]: 1.99 µM; TGI [7]: 11.4 µM; GI50 [9]: 1.37 µM; TGI [9]: 6.02 µM
O=C1OC(c2ccccc2)=N/C1=C/C=C/c1ccco1,> 100 µM,> 100 µM,> 100 µM,> 100 µM,–
Cc1ccccc1N1C(=O)/C(=C/c2ccc(N(CCC#N)CCC#N)cc2)N=C1c1cc([N+](=O)[O-])ccc1Cl,> 100 µM,> 100 µM,–,> 100 µM,–
O=c1nc2occc2cn1C1CC(O)C(CO)O1 (stereo unspecified),> 100 µM,> 100 µM,> 100 µM,> 100 µM,–
